Like-named read-outs stand apart in the source and are kept apart here.
Experiments:
solubility = type: physicochemical
[1] = test system: Biolaser-induced thrombosis / platelet aggregation in rabbit ear; test: in vivo inhibition of biolaser-induced platelet aggregation in the rabbit ear (Biolaser Model); set-up: species or system rabbit (English, half-lop); settings: for inhibition in vivo at 0.1 mg/kg: Oryctolagus cuniculus, Platelet, po, 0.1 mg/kg orally, 2 hours
Protocol: Transparent ear chambers were chronically implanted in adult, English, half-lop rabbits. The animals were conditioned to lie quietly in a supine position. Localized microvascular injury was induced by focusing a single pulse ruby laser beam through a microscope into the lumen of a vessel […] in diameter. This evoked the formation of a small thrombus consisting of platelets accumulated around a core of one or two damaged red cells. Thrombi areas were determined using computerized planimetry. The mean thrombus area (μM^2) obtained for 10 trials in each rabbit served as the control value. Subsequently, the test compound was administered orally and 2 hours later a second series of laser-induced thrombi trials were performed. Drug activity was evaluated by comparing pre-and post-dose mean thrombus areas. Activity determined at other time points beyond 2 hours establish duration of action.

[2] = target: T1, cyclic AMP phosphodiesterase (PDE) enzyme obtained from human platelets (Homo sapiens, UniProt Q14432); test: inhibition of cyclic AMP phosphodiesterase; type: biochemical; settings: human platelet PDE
T1 construct: phosphodiesterase (PDE) enzyme obtained from human platelets; from tissue; host or cells: human platelets
T1 sequence (Q14432 whole entry): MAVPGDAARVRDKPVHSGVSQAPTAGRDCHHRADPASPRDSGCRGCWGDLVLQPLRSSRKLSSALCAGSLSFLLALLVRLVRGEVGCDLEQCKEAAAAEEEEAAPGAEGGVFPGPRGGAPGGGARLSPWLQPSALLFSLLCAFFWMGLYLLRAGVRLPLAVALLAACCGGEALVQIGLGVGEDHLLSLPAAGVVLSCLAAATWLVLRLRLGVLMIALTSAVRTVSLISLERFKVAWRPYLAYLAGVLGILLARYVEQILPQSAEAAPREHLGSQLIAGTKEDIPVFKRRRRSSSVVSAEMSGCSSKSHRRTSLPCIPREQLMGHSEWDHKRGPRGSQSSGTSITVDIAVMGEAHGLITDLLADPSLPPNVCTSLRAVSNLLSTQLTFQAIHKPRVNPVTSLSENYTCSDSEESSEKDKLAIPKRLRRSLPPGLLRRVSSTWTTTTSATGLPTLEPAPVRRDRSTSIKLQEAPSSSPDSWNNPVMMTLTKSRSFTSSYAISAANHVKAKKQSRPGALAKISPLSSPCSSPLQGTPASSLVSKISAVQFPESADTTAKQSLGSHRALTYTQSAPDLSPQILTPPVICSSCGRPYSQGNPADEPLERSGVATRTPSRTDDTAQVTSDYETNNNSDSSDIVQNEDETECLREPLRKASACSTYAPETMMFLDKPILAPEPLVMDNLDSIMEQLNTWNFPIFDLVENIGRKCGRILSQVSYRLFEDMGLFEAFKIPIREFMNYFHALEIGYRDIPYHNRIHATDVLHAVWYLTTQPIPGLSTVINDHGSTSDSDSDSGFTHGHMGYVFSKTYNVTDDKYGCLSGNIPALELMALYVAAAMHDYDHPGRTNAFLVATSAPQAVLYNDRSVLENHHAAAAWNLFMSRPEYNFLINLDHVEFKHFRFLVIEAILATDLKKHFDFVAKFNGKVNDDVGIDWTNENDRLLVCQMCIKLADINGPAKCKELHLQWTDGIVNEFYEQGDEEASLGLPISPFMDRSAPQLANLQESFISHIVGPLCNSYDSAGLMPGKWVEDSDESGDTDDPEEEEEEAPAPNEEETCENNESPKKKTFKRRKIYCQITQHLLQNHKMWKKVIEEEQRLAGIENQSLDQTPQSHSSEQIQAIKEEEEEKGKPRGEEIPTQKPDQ
Protocol: This assay is carried out essentially as described by Thompson, et al., Methods in Enzymology, 38, […] (1974). Briefly, tritium labeled cyclic adenosine monophosphate (cAMP) is incubated with a phosphodiesterase (PDE) enzyme obtained from human platelets which converts a portion of the cAMP to 5'AMP in culture tubes. This reaction is terminated by submerging the tubes in a boiling water bath after which they are placed on ice and an aliquot of snake venom is added to each tube. This, during a second incubation, converts the 5'AMP to adenosine. Ion exchange resin is added to bind the remaining cyclic AMP. The tubes are centrifuged to sediment the resin and a portion of the clear supernatent (which contains radioactive adenosine) is counted in a liquid scintillation counter. The cAMP phosphodiesterase inhibition activity of a test agent is determined by pre-incubating the PDE enzyme preparation with the test agent. Dose response values are obtained and activity of the test agent reported as the molar (M) concentration of the test agent inhibition 50% of the PDE activity (IC50 s).

ferrets = test: in vivo inotropic activity in anesthetized ferrets (hemodynamic parameters and right ventricular contractile force); set-up: species or system ferret; settings: for change in vivo at 3 mg/kg: Mustela putorius, intraduodenal, 1 h, 3 mg/kg intraduodenally, monitored 60 minutes
Protocol: This test is […] out in ferrets as follows. Fasted anesthetized ferrets are instrumented to study hemodynamic parameters as well as right ventricular contractile force (RVCF) using a Walton-Brodie open strain gauge arch. Drugs are administered intraduodenally as solutions in DMSO (1 mL or less) and effects on myocardial contractile force and other parameters are monitored for 60 minutes after dosing. Changes in contractile force in response to drug treatment are expressed in terms of percent change from predose control.

[3] = test system: ADP-induced platelet aggregation; test: in vitro inhibition of ADP-induced platelet aggregation (aggregometer method of Born, platelet rich plasma); type: cell-based; settings: human platelet rich plasma; ADP 2.5 mcg/ml; as the dihydrochloride salt; read-out: EC50 versus ADP (inhibition of ADP-induced platelet aggregation)
Protocol: The aggregometer method of Born^1, as modified by Mustard, et al.^2 was used to assess the in vitro activity of the various compounds as to inhibition of adenosine diphosphate (ADP) and collagen-induced platelet aggregation. Platelet rich plasma (PRP) was separated by centrifugation from citrated (3.8 percent) human blood. ADP in final concentration of 2.5 mcg/ml or 0.05 ml of a collagen suspension prepared according to the method described by Evans, et al.^3 was used to induce aggregation. The various Evans, et al. compounds tested were dissolved in dimethylsulfoxide (DMSO) so that 5 mcl added to the platelet rich plasma would yield the desired test concentration. Vehicle control trials were done and compared with aggregation induced in platelet rich plasma containing various concentrations of the test compounds. Dose response curves were thus obtained and Effective Concentration (EC50) values calculated.

[4] = Table I, read-out: cAMP PDE IC50 (m)
[5] = change from predose control, read-out: Ferret, Maximum % Change, VCF (ventricular contractile force)
[6] = read-out: Ferret, Maximum % Change, HR (heart rate)
[7] = read-out: Ferret, Maximum % Change, MAP (mean arterial blood pressure)

For `O=C(CCCOc1ccc2nc3[nH]c(=O)[nH]c3cc2c1)N1CCN(c2ccccc2)CC1` [1-[4-[(2,3-dihydro-2-oxo-1H-imidazo[4,5-b]-quinolin-7-yl)oxy]-1-oxobutyl]-4-phenylpiperazine, reference compound], which solubility (solubility; 2.0n hcl, read-out: solubility in 2.0N HCl) is on record?
Its solubility is less than 10 µg/mL.

What about the solubility (solubility; water, read-out: solubility in water) of the same compound?
Its solubility is less than 10 µg/mL.

What about the “activity in Biolaser Model relative to Table I compounds” value ([1]; 0.3 mg/kg body weight, compared with Table I compounds) of the same compound?
The value was “markedly less active than Table I compounds”.

What about the “inhibition in Biolaser Model” value ([1]; 0.3 mg/kg body weight, rabbit) of the same compound?
Its value is 22%.

Which IC50 [2, 4] does the source give for `O=C(CCCOc1ccc2nc3[nH]c(=O)[nH]c3cc2c1)N1CCN(Cc2ccccc2)CC1` [Example 11] here?
Its IC50 is 0.7 nM.

What about the change in vivo at 3 mg/kg (ferrets; [5]) of the same compound?
Its change in vivo at 3 mg/kg is 28%.

What about the change in vivo at 3 mg/kg (ferrets; [6]) of the same compound?
Its change in vivo at 3 mg/kg is 31%.

What about the change in vivo at 3 mg/kg (ferrets; [7]) of the same compound?
Its change in vivo at 3 mg/kg is -42%.

What about the inhibition in vivo at 0.1 mg/kg ([1]; rabbit) of the same compound?
Its inhibition in vivo at 0.1 mg/kg is 50%.

Which results are given for `O=C(CCCOc1ccc2nc3[nH]c(=O)[nH]c3cc2c1)N1CCN(Cc2ccc(F)cc2)CC1` [Example 13]?
IC50 [2, 4]: 2 nM; change in vivo at 3 mg/kg (ferrets; [5]): 32%; change in vivo at 3 mg/kg (ferrets; [6]): 21%; change in vivo at 3 mg/kg (ferrets; [7]): -11%; inhibition in vivo at 0.1 mg/kg ([1]; rabbit): 46%

Which results are given for `O=C(CCCOc1ccc2nc3[nH]c(=O)[nH]c3cc2c1)N1CCN(Cc2cccc(C(F)(F)F)c2)CC1` [Example 14, 1-[4-(2,3-Dihydro-2-oxo-1H-imidazo[4,5-b]quinolin-7-(yloxy)-1-oxobutyl]-4-[[3-trifluormethyl)phenyl-]methyl]piperazine]?
IC50 [2, 4]: 9 nM; change in vivo at 3 mg/kg (ferrets; [5]): 3%; change in vivo at 3 mg/kg (ferrets; [6]): 12%; change in vivo at 3 mg/kg (ferrets; [7]): -16%; inhibition in vivo at 0.1 mg/kg ([1]; rabbit): 49%

What does the source list for `COc1ccc(CN2CCN(C(=O)CCCOc3ccc4nc5[nH]c(=O)[nH]c5cc4c3)CC2)cc1` [Example 15]?
IC50 [2, 4]: 3 nM; change in vivo at 3 mg/kg (ferrets; [5]): 24%; change in vivo at 3 mg/kg (ferrets; [6]): 17%; change in vivo at 3 mg/kg (ferrets; [7]): -23%; inhibition in vivo at 0.1 mg/kg ([1]; rabbit): 48%

What does the source list for `O=C(CCCOc1ccc2nc3[nH]c(=O)[nH]c3cc2c1)N1CCN(Cc2cccs2)CC1` [Example 16, 1-[4-(2,3-Dihydro-2-oxo-1H-imidazo[4,5-b]quinolin-7-yloxy)-1-oxobutyl]-4-(2-thienylmethyl)piperazine]?
IC50 [2, 4]: 0.7 nM; change in vivo at 3 mg/kg (ferrets; [5]): 30%; change in vivo at 3 mg/kg (ferrets; [6]): 16%; change in vivo at 3 mg/kg (ferrets; [7]): -27%; inhibition in vivo at 0.1 mg/kg ([1]; rabbit): 49%

For `O=C(CCCOc1ccc2nc3[nH]c(=O)[nH]c3cc2c1)N1CCN(c2ccccn2)CC1` [Example 19], which IC50 [2, 4] is on record?
Its IC50 is 5 nM.

What about the change in vivo at 3 mg/kg (ferrets; [5]) of the same compound?
The change in vivo at 3 mg/kg was -8%.

And the change in vivo at 3 mg/kg (ferrets; [6])?
Its change in vivo at 3 mg/kg is 12%.

What about the change in vivo at 3 mg/kg (ferrets; [7]) of the same compound?
The change in vivo at 3 mg/kg was -15%.

What about the inhibition in vivo at 0.1 mg/kg ([1]; rabbit) of the same compound?
The inhibition in vivo at 0.1 mg/kg was 47%.

Which IC50 ([2]; read-out: IC50, cAMP phosphodiesterase inhibition) does the source give for `O=C(CCCOc1ccc2nc3[nH]c(=O)[nH]c3cc2c1)N1CCN(CC2CCCCC2)CC1` [Example 22, 1-(Cyclohexylmethyl)-4-[4-(2,3-dihydro-2-oxo-1H-imidazo[4,5-b]quinolin-7-yloxy)-1-oxybutyl]piperazine] here?
Its IC50 is 0.4 nM.

And the EC50 [3]?
Its EC50 is 910 nM.

What about the change in vivo at 3 mg/kg (ferrets; [5]) of the same compound?
Its change in vivo at 3 mg/kg is 27%.

What about the change in vivo at 3 mg/kg (ferrets; [6]) of the same compound?
The change in vivo at 3 mg/kg was 29%.

And the change in vivo at 3 mg/kg (ferrets; [7])?
Its change in vivo at 3 mg/kg is -15%.

And the inhibition in vivo at 0.1 mg/kg ([1]; rabbit)?
The inhibition in vivo at 0.1 mg/kg was 59%.

For `O=C(CCCOc1ccc2nc3[nH]c(=O)[nH]c3cc2c1)N1CCN(C2CCCCCC2)CC1` [Example 25, 1-Cycloheptanyl-4-[4-(2,3-dihydro-2-oxo-1H-imidazo[4,5-b]quinolin-7-yloxy)-1-oxobutyl]piperazine], which IC50 [2, 4] is on record?
Its IC50 is 0.9 nM.

And the change in vivo at 3 mg/kg (ferrets; [5])?
Its change in vivo at 3 mg/kg is 26%.

What about the change in vivo at 3 mg/kg (ferrets; [6]) of the same compound?
Its change in vivo at 3 mg/kg is 17%.

And the change in vivo at 3 mg/kg (ferrets; [7])?
Its change in vivo at 3 mg/kg is -12%.

And the inhibition in vivo at 0.1 mg/kg ([1]; rabbit)?
Its inhibition in vivo at 0.1 mg/kg is 49%.

Which “increase in RVCF (right ventricular contractile force)” value (ferrets; 3 mg/kg, ferret) does the source give for `Cc1[nH]c(=O)c(C#N)cc1-c1ccncc1` [milrinone, reference compound] here?
The value was 52%.

— patent US4943573A, “Imidazo[4,5-b]quinolinyloxyalkanoic acid amides with enhanced water solubility” (Bristol-Myers Squibb Company, priority 1989, dated 1990)
